Key:
[1] = tested on: c-KIT D816V Ba/F3 cells; test: Apoptosis analysis (annexinV/PI flow cytometry); format: cell-based; conditions: c-KIT D816V Ba/F3, 1 μM
Procedure: (§1) After compound treatment in GIST-T1 and HMC1.2 cells for 24 h, cells were fixed with 70% cold ethanol. Then, cells were incubated with 50 μg propidium iodide/mL solution (PI, Sigma) containing 1 mg RNase A/mL for 30 min in the dark. Cell cycle arrest was analyzed (BD Accuri), and data were processed using BD Accuri^TM C6 software. For apoptosis analysis, compound treatment for 24–48 h, cells were harvested and stained with annexinV and PI solution. 1 × 10^5 cells were analyzed using flow cytometric analysis.

[2] = tested on: GIST-T1 cells; test: Cell cycle arrest analysis (PI flow cytometry); format: cell-based, human; conditions: GIST-T1, 0.01 μM
Procedure: as §1

[3] = tested on: HMC1.2 cells; test: Cell cycle arrest analysis (PI flow cytometry); format: cell-based, human; conditions: HMC1.2, 0.5 μM, 24 h
Procedure: as §1

[4] = tested on: GIST-T1 cells; test: Invasion assay (Transwell); format: cell-based, human; conditions: GIST-T1, 0.05 μM, 48 h
Procedure: The cell invasion assay was performed using Transwell membrane filter inserts (Corning Costar Corp., Corning, NY, USA). GIST-T1 cells were then suspended in serum-free DMEM at 2 × 10^6 cells and seeded in the upper chambers. In the lower chambers, the DMEM medium containing 10% FBS was added. After 48 h, the cells migrating down the membrane were stained with crystal violet.

[5] = tested on: GIST-T1 cells; test: Soft agar assay (anchorage-independent growth); format: cell-based, human; conditions: 3 weeks
Procedure: Anchorage-independent growth was assessed by determining colony formation on soft agar. GIST-T1 cells in DMEM media containing 0.7% agar were plated at 5,000 cells per well. Cells were treated with each compound for 3 weeks, and the media were changed every 3 days. Colonies were stained using iodonitrotetrazolium chloride (Sigma Aldrich). The average number colonies were counted using ImageJ software (version 1.53e, National Institutes of Health, Bethesda, MD, USA)

[6] = biological target: T1, BMPR2 (Homo sapiens, UniProt Q13873); test: Kinase panel profiling; format: biochemical; conditions: 10 μM ATP
T1 construct: purchased Reaction Biology Corp
Procedure: (§2) Kinase panel profiling was conducted by Reaction Biology Corp. (San Diego, CA, USA). A single dose (1.0 μM) of 6r was tested against 371 recombinant human kinases in the presence of 10 μM ATP.

[7] = biological target: T2, BRSK2 (Homo sapiens, UniProt Q8IWQ3); test: Kinase panel profiling; format: biochemical; conditions: 10 μM ATP
T2 construct: purchased Reaction Biology Corp
T2 sequence (Q8IWQ3 whole entry): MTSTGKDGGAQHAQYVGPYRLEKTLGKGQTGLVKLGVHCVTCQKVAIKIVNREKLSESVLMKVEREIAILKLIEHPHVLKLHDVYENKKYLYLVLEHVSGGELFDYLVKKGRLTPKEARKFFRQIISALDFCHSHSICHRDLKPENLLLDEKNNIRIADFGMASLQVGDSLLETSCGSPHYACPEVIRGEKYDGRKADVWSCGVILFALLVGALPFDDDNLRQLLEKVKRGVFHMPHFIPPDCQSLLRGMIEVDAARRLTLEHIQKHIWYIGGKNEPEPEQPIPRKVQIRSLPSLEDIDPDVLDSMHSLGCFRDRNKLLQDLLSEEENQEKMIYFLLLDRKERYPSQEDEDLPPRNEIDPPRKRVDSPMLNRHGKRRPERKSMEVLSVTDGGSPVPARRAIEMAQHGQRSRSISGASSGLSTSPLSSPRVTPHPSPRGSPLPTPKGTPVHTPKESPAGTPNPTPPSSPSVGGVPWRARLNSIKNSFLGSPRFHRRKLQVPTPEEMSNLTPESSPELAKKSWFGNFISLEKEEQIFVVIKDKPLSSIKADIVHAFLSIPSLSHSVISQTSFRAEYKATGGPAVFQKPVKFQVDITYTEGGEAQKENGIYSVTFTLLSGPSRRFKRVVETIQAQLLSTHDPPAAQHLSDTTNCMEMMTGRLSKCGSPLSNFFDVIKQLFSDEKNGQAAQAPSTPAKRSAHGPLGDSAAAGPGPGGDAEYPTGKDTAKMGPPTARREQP
Procedure: as §2

[8] = biological target: T3, BTK (Homo sapiens, UniProt Q06187); test: Kinase panel profiling; format: biochemical; conditions: 10 μM ATP
T3 construct: purchased Reaction Biology Corp
Procedure: as §2

[9] = biological target: T4, CAMK1g (Homo sapiens, UniProt Q96NX5); test: Kinase panel profiling; format: biochemical; conditions: 10 μM ATP
T4 construct: purchased Reaction Biology Corp
T4 sequence (Q96NX5 whole entry): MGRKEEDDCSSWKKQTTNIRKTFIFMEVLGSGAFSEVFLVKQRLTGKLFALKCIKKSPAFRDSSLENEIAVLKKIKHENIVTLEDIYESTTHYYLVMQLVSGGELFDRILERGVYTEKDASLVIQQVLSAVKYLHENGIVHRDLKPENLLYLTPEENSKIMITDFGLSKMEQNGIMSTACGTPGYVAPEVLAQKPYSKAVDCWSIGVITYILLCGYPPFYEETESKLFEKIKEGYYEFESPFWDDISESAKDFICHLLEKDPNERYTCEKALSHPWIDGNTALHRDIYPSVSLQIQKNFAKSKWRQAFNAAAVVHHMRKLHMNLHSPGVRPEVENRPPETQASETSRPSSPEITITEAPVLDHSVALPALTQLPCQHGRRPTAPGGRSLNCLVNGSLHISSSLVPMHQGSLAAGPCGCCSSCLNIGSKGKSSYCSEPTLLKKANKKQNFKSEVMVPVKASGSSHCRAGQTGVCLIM
Procedure: as §2

[10] = biological target: T5, CDK2/CYCLIN A (Homo sapiens, UniProt P24941); test: Kinase panel profiling; format: biochemical; conditions: 10 μM ATP
T5 construct: purchased Reaction Biology Corp
Procedure: as §2

[11] = biological target: T6, CDK9/CYCLIN K (Homo sapiens, UniProt P50750); test: Kinase panel profiling; format: biochemical; conditions: 10 μM ATP
T6 construct: purchased Reaction Biology Corp
Procedure: as §2

[12] = biological target: T7, CSK (Homo sapiens, UniProt P41240); test: Kinase panel profiling; format: biochemical; conditions: 10 μM ATP
T7 construct: purchased Reaction Biology Corp
T7 sequence (P41240 whole entry): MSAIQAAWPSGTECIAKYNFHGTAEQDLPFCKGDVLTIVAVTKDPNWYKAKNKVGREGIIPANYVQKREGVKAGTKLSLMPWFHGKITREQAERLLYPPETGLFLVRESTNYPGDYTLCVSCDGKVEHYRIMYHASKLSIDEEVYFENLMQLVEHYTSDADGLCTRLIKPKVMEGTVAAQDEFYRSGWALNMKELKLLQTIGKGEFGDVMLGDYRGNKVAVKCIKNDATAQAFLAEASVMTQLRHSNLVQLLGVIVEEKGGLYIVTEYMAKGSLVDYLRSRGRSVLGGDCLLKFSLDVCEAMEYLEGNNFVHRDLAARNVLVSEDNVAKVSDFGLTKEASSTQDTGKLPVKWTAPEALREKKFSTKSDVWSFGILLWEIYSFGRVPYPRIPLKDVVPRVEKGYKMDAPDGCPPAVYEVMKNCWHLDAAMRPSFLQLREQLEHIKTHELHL
Procedure: as §2

[13] = biological target: T8, FGFR1 (Homo sapiens, UniProt P11362); test: Kinase panel profiling; format: biochemical; conditions: 10 μM ATP
T8 construct: purchased Reaction Biology Corp
Procedure: as §2

[14] = biological target: T9, FGFR3 (Homo sapiens, UniProt P22607); test: Kinase panel profiling; format: biochemical; conditions: 10 μM ATP
T9 construct: purchased Reaction Biology Corp
Procedure: as §2

[15] = biological target: T10, FLT4/VEGFR3 (Homo sapiens, UniProt P35916); test: Kinase panel profiling; format: biochemical; conditions: 10 μM ATP
T10 construct: purchased Reaction Biology Corp
T10 sequence (P35916 25-1363): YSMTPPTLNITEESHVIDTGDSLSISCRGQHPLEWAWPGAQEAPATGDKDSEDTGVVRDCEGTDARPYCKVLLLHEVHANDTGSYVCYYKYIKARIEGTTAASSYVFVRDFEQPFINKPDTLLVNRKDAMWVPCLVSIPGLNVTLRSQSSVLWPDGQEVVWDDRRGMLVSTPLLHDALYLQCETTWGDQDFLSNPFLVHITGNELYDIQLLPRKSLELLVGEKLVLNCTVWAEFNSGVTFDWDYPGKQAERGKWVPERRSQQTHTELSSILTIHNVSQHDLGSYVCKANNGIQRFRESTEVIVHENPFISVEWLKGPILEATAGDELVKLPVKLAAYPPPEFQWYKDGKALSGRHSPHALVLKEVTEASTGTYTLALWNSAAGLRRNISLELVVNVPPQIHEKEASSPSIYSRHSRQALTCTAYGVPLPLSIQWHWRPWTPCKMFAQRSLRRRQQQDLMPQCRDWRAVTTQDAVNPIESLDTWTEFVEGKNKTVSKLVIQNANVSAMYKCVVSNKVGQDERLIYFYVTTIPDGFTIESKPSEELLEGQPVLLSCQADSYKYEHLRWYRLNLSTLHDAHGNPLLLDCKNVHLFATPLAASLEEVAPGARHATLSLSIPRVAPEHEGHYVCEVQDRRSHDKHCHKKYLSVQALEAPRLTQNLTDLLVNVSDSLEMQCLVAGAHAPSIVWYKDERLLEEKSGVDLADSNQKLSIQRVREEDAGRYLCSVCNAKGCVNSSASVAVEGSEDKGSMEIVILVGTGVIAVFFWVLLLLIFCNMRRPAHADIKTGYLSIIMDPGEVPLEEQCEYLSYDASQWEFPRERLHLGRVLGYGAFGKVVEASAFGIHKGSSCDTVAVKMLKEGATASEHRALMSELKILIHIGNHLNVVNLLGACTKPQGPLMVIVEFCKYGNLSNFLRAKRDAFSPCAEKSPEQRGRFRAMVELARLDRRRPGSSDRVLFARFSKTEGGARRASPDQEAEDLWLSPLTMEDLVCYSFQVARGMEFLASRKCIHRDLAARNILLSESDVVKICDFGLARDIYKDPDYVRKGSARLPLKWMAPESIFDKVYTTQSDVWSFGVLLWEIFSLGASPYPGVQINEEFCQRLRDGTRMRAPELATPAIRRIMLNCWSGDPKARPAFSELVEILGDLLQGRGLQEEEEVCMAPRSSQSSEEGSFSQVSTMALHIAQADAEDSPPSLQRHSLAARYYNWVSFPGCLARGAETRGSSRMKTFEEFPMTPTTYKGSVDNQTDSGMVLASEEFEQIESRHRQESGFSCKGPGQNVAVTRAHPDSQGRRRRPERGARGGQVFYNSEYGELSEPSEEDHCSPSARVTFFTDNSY
Procedure: as §2

[16] = biological target: T11, FRK/PTK5 (Homo sapiens, UniProt P42685); test: Kinase panel profiling; format: biochemical; conditions: 10 μM ATP
T11 construct: purchased Reaction Biology Corp
Procedure: as §2

[17] = biological target: T12, HGK/MAP4K4 (Homo sapiens, UniProt O95819); test: Kinase panel profiling; format: biochemical; conditions: 10 μM ATP
T12 construct: purchased Reaction Biology Corp
Procedure: as §2

[18] = biological target: T13, HIPK2 (Homo sapiens, UniProt Q9H2X6); test: Kinase panel profiling; format: biochemical; conditions: 10 μM ATP
T13 construct: purchased Reaction Biology Corp
Procedure: as §2

[19] = biological target: T14, MAPKAPK2 (Homo sapiens, UniProt P49137); test: Kinase panel profiling; format: biochemical; conditions: 10 μM ATP
T14 construct: purchased Reaction Biology Corp
T14 sequence (P49137 whole entry): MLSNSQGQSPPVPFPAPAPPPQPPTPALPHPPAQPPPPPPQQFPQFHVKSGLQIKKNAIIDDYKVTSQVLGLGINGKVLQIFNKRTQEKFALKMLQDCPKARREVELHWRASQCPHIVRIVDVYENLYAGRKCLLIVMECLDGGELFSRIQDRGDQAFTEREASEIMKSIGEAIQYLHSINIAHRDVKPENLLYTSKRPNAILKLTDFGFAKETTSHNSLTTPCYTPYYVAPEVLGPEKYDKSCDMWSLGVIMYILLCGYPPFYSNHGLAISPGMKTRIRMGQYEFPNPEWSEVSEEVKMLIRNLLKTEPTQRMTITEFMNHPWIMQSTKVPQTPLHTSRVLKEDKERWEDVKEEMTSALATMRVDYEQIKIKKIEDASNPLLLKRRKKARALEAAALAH
Procedure: as §2

[20] = biological target: T15, MLK2/MAP3K10 (Homo sapiens, UniProt Q02779); test: Kinase panel profiling; format: biochemical; conditions: 10 μM ATP
T15 construct: purchased Reaction Biology Corp
T15 sequence (Q02779 whole entry): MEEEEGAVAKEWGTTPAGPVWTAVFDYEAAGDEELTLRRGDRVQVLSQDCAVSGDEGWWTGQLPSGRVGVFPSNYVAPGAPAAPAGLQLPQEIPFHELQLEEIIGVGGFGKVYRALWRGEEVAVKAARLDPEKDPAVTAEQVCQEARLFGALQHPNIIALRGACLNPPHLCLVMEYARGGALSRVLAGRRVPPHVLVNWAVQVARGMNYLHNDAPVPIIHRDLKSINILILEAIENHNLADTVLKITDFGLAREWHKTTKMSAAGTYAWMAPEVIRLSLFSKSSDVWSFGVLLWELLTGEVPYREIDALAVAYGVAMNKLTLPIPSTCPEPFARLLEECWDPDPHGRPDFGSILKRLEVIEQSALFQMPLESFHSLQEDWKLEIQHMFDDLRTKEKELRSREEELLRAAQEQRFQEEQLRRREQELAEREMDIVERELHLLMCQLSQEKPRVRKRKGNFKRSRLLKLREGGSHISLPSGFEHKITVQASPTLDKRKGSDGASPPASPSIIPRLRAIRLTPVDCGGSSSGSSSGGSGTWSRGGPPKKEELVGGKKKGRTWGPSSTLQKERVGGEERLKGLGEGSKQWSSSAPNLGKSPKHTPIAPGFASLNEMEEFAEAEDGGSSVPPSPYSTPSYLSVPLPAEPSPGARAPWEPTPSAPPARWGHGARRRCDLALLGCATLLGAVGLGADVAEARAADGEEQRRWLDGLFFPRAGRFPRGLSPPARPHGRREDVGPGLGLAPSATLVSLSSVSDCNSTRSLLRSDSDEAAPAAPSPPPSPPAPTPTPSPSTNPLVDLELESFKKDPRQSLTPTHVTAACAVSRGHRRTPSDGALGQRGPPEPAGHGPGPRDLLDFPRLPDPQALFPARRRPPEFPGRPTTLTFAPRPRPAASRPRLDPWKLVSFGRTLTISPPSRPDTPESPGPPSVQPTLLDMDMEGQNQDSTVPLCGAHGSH
Procedure: as §2

[21] = biological target: T16, MLK4 (Homo sapiens, UniProt Q5TCX8); test: Kinase panel profiling; format: biochemical; conditions: 10 μM ATP
T16 construct: purchased Reaction Biology Corp
Procedure: as §2

[22] = biological target: T17, NEK1 (Homo sapiens, UniProt Q96PY6); test: Kinase panel profiling; format: biochemical; conditions: 10 μM ATP
T17 construct: purchased Reaction Biology Corp
Procedure: as §2

[23] = biological target: T18, NEK2 (Homo sapiens, UniProt P51955); test: Kinase panel profiling; format: biochemical; conditions: 10 μM ATP
T18 construct: purchased Reaction Biology Corp
Procedure: as §2

[24] = biological target: T19, NLK (Homo sapiens, UniProt Q9UBE8); test: Kinase panel profiling; format: biochemical; conditions: 10 μM ATP
T19 construct: purchased Reaction Biology Corp
Procedure: as §2

[25] = biological target: T20, P38d/MAPK13 (Homo sapiens, UniProt O15264); test: Kinase panel profiling; format: biochemical; conditions: 10 μM ATP
T20 construct: purchased Reaction Biology Corp
T20 sequence (O15264 whole entry): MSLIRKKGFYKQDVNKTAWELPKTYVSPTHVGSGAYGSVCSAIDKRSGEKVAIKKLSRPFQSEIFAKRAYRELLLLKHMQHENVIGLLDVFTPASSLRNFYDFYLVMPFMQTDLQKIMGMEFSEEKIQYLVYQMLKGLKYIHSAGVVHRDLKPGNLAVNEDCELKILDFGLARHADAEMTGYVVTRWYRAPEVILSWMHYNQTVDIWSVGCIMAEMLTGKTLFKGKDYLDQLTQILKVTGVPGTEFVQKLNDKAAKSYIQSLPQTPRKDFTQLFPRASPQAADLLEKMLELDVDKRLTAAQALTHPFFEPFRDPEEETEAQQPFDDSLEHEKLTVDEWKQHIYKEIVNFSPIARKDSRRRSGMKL
Procedure: as §2

[26] = biological target: T21, P38g (Homo sapiens, UniProt P53778); test: Kinase panel profiling; format: biochemical; conditions: 10 μM ATP
T21 construct: purchased Reaction Biology Corp
Procedure: as §2

[27] = biological target: T22, PAK6 (Homo sapiens, UniProt Q9NQU5); test: Kinase panel profiling; format: biochemical; conditions: 10 μM ATP
T22 construct: purchased Reaction Biology Corp
Procedure: as §2

[28] = biological target: T23, PDGFRa (Homo sapiens, UniProt P16234); test: Kinase panel profiling; format: biochemical; conditions: 10 μM ATP
T23 construct: purchased Reaction Biology Corp
Procedure: as §2

[29] = biological target: T24, PKD2/PRKD2 (Homo sapiens, UniProt Q9BZL6); test: Kinase panel profiling; format: biochemical; conditions: 10 μM ATP
T24 construct: purchased Reaction Biology Corp
Procedure: as §2

[30] = biological target: T25, PKN2/PRK2 (Homo sapiens, UniProt Q16513); test: Kinase panel profiling; format: biochemical; conditions: 10 μM ATP
T25 construct: purchased Reaction Biology Corp
Procedure: as §2

[31] = biological target: T26, ROS/ROS1 (Homo sapiens, UniProt P08922); test: Kinase panel profiling; format: biochemical; conditions: 10 μM ATP
T26 construct: purchased Reaction Biology Corp
Procedure: as §2

[32] = biological target: T27, SGK3/SGKL (Homo sapiens, UniProt Q96BR1); test: Kinase panel profiling; format: biochemical; conditions: 10 μM ATP
T27 construct: purchased Reaction Biology Corp
Procedure: as §2

[33] = biological target: T28, SNRK (Homo sapiens, UniProt Q9NRH2); test: Kinase panel profiling; format: biochemical; conditions: 10 μM ATP
T28 construct: purchased Reaction Biology Corp
Procedure: as §2

[34] = biological target: T29, TSSK3/STK22C (Homo sapiens, UniProt Q96PN8); test: Kinase panel profiling; format: biochemical; conditions: 10 μM ATP
T29 construct: purchased Reaction Biology Corp
T29 sequence (Q96PN8 whole entry): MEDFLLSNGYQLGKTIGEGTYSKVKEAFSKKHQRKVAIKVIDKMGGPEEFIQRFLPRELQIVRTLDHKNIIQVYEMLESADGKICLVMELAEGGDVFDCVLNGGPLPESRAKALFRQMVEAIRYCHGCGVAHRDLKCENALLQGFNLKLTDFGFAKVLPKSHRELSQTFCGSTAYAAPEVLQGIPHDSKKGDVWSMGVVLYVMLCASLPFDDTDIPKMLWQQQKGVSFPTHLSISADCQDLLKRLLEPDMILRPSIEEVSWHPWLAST
Procedure: as §2

SMILES: Cc1ccc(NC(=O)c2ccc(CN3CCN(C)CC3)c(C(F)(F)F)c2)cc1-c1cnc2sc(N)nc2c1 [6r]
- production of apoptotic cells [1]: remarkably induced
- G0/G1 arrest induced compared to control [2]: 25–35%
- G0/G1 arrest compared with imatinib [3]: more strongly
- invasion capability [4]: significantly suppressing
- anchorage-independent growth ([5]; GIST-T1, 0.05 μM, compared to control): completely suppressed
- anchorage-independent growth ([5]; GIST-T1, two different concentrations): dramatic inhibition
- inhibition at 1 µM [6]: 20.6%
- inhibition at 1 µM [7]: 7.2%
- inhibition at 1 µM [8]: 4.7%
- inhibition at 1 µM [9]: 20.8%
- inhibition at 1 µM [10]: 0%
- inhibition at 1 µM [11]: 0%
- inhibition at 1 µM [12]: 41.3%
- inhibition at 1 µM [13]: 20.7%
- inhibition at 1 µM [14]: 0%
- inhibition at 1 µM [15]: 77.8%
- inhibition at 1 µM [16]: 98.4%
- inhibition at 1 µM [17]: 0%
- inhibition at 1 µM [18]: 0.5%
- inhibition at 1 µM [19]: 12.5%
- inhibition at 1 µM [20]: 13.4%
- inhibition at 1 µM [21]: 6.5%
- inhibition at 1 µM [22]: 2.6%
- inhibition at 1 µM [23]: 0%
- inhibition at 1 µM [24]: 7.3%
- inhibition at 1 µM [25]: 0%
- inhibition at 1 µM [26]: 0%
- inhibition at 1 µM [27]: 7.6%
- inhibition at 1 µM [28]: 96.7%
- inhibition at 1 µM [29]: 28.6%
- inhibition at 1 µM [30]: 0%
- inhibition at 1 µM [31]: 6.6%
- inhibition at 1 µM [32]: 0.8%
- inhibition at 1 µM [33]: 0%
- inhibition at 1 µM [34]: 0%
